Data set [1] concerns the target c-Src SH3 domain-GST fusion protein (Gallus gallus, UniProt P00523). Kind of data set: Fluorescence polarization direct binding assay, c-Src SH3. Details: species or system chicken. The following applies: 50 nM fluorescently labeled ligand, read-out: Kd, c-Src SH3. The method, then: Polarization was measured by excitation with vertically polarized light at 485 nm and the fluorescence emission detected at 530 nm in both the vertical and horizontal directions. An average of five measurements were recorded for each well. Samples were equilibrated at room temperature for 25 min before analysis, a time sufficient for the binding reactions to reach equilibrium. The polarization data were fit using Kaleidagraph v3.6 software to Eq. 5, which is derived from first principles without assumptions. […] In this equation, Pobs is the observed polarization value at any given concentration of target protein (GST•SH3 domain). Pmin is the polarization of peptide^Flu at 50 nM in the absence of target protein. Pmax is the maximum polarization of peptide^Flu at saturation with target protein. Kd is the equilibrium dissociation constant. […] Free fits are shown. Kd values were estimated as described.
(In fluorescence polarisation assays a small probe gives low polarisation when free and higher when bound to something large.)

A further data set has as its target T1, Hck kinase (Homo sapiens, UniProt P08631).
T1 construct: His6 (N); made in house; host or cells: HighFive insect cells, co-infected with Hck and Csk baculovirus
Put plainly: Hck kinase activation, NADH-coupled assay. Particulars: for Activity / Fold-Activation: Activator 50 micromolar; for Fold-Activation: rate with ligand / rate without ligand; for EC50: read-out: Kact (concentration of activator at half-maximal activation). The format is biochemical. On the procedure:
Activation of Hck kinase was measured using a validated NADH-coupled assay as described. Briefly, purified Hck kinase (15 micromolar) was first pre-incubated with 500 micromolar ATP and 20 mM MgCl2 for about 30 min on ice to initiate autophosphorylation of Y416. The autophosphorylated product (0.55 micromolar final concentration) was then incubated in Hck Reaction Buffer (20 mM MgCl2, 0.1 mM DTT, 20 μg/mL BSA, 100 mM HEPES (pH 7.5)) for 10 min at room temperature with the indicated concentration of Nef or miniature protein. At this time the remaining assay components (1 mM PEP, 0.2 mM NADH, 6 U pyruvate kinase (Type II from rabbit muscle, Sigma), 6 U L-lactic dehydrogenase (Type II from rabbit muscle, Sigma), 600 micromolar substrate peptide, and 500 micromolar ATP) were added to initiate the reaction (total volume 200 microliters) and the absorbance at 340 nm was monitored every 10 sec for 10 min using a Beckman DU 730 UVN is Spectrophotomer. The activation constant Kact for each ligand was calculated from the initial rate as a function of ligand concentration as previously described, using Eq. 6. Fold activation was calculated by dividing the rate in the presence of ligand by the rate in the absence of ligand.
va=Vact[L]/(Kact±[L]) Equation 6.
In this equation va is velocity measured in the presence of ligand minus the velocity measured in its absence; Vact is the maximal activated velocity minus the velocity measured in the absence of ligand; [L] is the concentration of activator and Kact is concentration of activator at half-maximal activation.

The nature of data set [2]: Sedimentation equilibrium analytical ultracentrifugation of aPP variants, monomer-n-mer fit (self-association). It counts as physicochemical. The method, then:
Analytical ultracentrifugation experiments were performed using peptide solutions prepared in Tris.Cl buffer (25 mM Tris base, 50 mM NaCl, (pH 8.0)) at the appropriate concentrations (5 micromolar to 200 micromolar). Samples were then centrifuged to equilibrium at 25° C. at 42,000, 50,000, and 60,000 rpm. Data were collected with a 0.001 cm step size and successive scans were initiated at 2 h intervals. Samples were judged to have reached equilibrium when the radial concentration gradient remained unchanged over three successive scans using the Match module of Heteroanalysis software v1.1.19. The solvent density (ρ, rho) and partial specific volume ( ν, nu) were calculated using the Sedimentation Interpretation Program “Sednterp” software v1.08.
The data for each peptide (multiple concentrations at three speeds) was first fit globally to an equation describing the sedimentation of an ideal species of molecular weight Mn (Eq. 1) using Heteroanalysis software v1.1.19:
where C represents the concentration of the sedimenting species at distances r and r0 cm from the center of rotation; ν (nu) is the partial specific volume of the sedimenting species in cc/g; ρ (rho) is the density of the supporting buffer in g/cc; ω (omega) is the angular velocity of the rotor (radians/s); Mn is the “molar” molecular weight of sedimenting species (g/mol); R is the universal gas constant (8.315×10^7 ergs K^−1 mol^−1) and T is the temperature in degrees Kelvin.
In order to quantify this self-association, the data for each peptide was next fit globally to a monomer-n-mer equilibrium model using Eq. 2:
where n is the stoichiometry of the self-associated complex. Errors were calculated for n and lnKA using f-statistics to two standard deviations.
Samples were prepared in PBS buffer and centrifuged at speeds of 42,000 (41), 50,000 (42), or 60,000 RPM (43) at 25° C. Experimental data are shown as points; lines indicate the best fit to a monomer-n-mer model described by Eq. 2.

Data set [3] is described as follows: Circular dichroism (wavelength- and temperature-dependent) of aPP variants, Example 1. It counts as physicochemical. The following applies: 30 micromolar, Tris buffer pH 8.0, 25° C. On the procedure: The CD spectra of each peptide (30 micromolar) were acquired in Tris buffer (25 mM Tris base, 50 mM NaCl, (pH 8.0)) at 25° C. in a 2 mm cell. Samples were scanned between 200 and 260 nm, with signal sampling every 0.5 nm, and three successive scans were averaged. Molar residue ellipticity values were calculated from the equation MRE=(Θsample−Θbuffer)/(L×c×n×1000), where Θ is the observed signal in millidegrees, L is the length of the cuvette in cm, c is the concentration of peptide in dmol cm^−3 and n is the number of amino acids in the molecule.
Temperature-dependent CD spectra of aPP^Y7AP13SV14P (30 micromolar) were acquired in Dulbecco's PBS (1 mM KH2PO4, 155 mM NaCl, 3 mM Na2HPO4, (pH 7.4)) in a 2 mm cell. The signal at 222 nm (MRE222) was monitored between 1° C. and 80° C. using the variable temperature module provided with the instrument. Data were collected with a 0.5° C. data pitch, 5 s delay time, 20° C./hour temperature slope, 4 s response, and 1 nm bandwidth. CD spectra were obtained as the temperature was raised and when the temperature was lowered to establish the reversibility of the folding transition. Additionally, a full wavelength scan was obtained before and after the thermal melt; an overlay of the two spectra is shown in FIG. 3A. […] Mean residue ellipticity values for the temperature dependent CD spectrum were calculated from the equation MRE=Θ222 nm/(L×c×n×1000), where Θ is observed signal at 222 nm (mdeg), L is the length of, the cuvette (cm), c is the concentration of peptide (dmol/cm^3) and n is the number of amino acids in the molecule. The first derivatives of the temperature-dependent CD spectra are shown in FIG. 3B, which is a plot of δMRE222/δT (units of deg cm^2 dmol^−1 K^−1). The Tm value reported in the main text corresponds to the temperature at which ∂MRE222/∂T is a maximum.

Read-outs that look alike come from different tables or passages of the source. Residues, ends and D or L forms follow the SMILES beside them.

T1 sequence (P08631 whole entry): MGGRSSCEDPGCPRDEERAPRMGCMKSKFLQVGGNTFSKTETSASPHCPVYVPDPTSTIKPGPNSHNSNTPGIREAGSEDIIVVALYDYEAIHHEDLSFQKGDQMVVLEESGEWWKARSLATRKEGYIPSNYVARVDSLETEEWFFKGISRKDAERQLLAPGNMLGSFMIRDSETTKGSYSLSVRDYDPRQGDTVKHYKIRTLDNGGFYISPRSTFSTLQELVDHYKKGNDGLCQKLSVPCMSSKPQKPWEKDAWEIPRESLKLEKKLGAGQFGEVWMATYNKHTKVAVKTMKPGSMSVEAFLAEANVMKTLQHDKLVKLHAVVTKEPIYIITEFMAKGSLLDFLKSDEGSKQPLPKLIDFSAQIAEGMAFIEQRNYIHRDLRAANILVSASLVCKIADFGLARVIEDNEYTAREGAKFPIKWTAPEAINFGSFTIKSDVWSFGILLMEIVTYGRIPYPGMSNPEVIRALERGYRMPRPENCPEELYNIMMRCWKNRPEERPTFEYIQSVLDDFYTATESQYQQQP

As a reminder, the Kd is the constant that tells how readily two partners part at equilibrium. For `CC[C@H](C)[C@H](NC(=O)[C@H](CC(C)C)NC(=O)[C@H](CC(=O)O)NC(=O)[C@H](CCC(=O)O)NC(=O)[C@@H](NC(=O)[C@@H]1CCCN1C(=O)[C@H](C)NC(=O)[C@H](CC(=O)O)NC(=O)[C@H](CC(=O)O)NC(=O)CNC(=O)[C@@H]1CCCN1C(=O)[C@H](CC(N)=O)NC(=O)[C@H](CCCNC(=N)N)NC(=O)[C@@H]1CCCN1C(=O)[C@@H]1CCCN1C(=O)[C@H](CC(C)C)NC(=O)[C@@H]1CCCN1C(=O)[C@@H]1CCCN1C(=O)[C@H](C)N)C(C)C)C(=O)N[C@@H](CCCNC(=N)N)C(=O)N[C@@H](Cc1ccccc1)C(=O)N[C@@H](Cc1ccc(O)cc1)C(=O)N[C@@H](CC(=O)O)C(=O)N[C@@H](CC(N)=O)C(=O)N[C@@H](CC(C)C)C(=O)N[C@@H](CCC(N)=O)C(=O)N[C@@H](CCC(N)=O)C(=O)N[C@@H](Cc1ccc(O)cc1)C(=O)N[C@@H](CC(C)C)C(=O)N[C@@H](CC(N)=O)C(=O)N[C@H](C(=O)N[C@H](C(=O)N[C@H](C(=O)N[C@@H](CCCNC(=N)N)C(=O)N[C@@H](Cc1c[nH]cn1)C(=O)N[C@@H](CCCNC(=N)N)C(=O)N[C@@H](Cc1ccc(O)cc1)C(N)=O)[C@@H](C)O)C(C)C)C(C)C` [PP1] (H-APPLPPRNPGDDAPVEDLIRFYDNLQQYLNVVTRHRY-NH2), the Kd in data set [1] (PBS pH 7.4) was found to be 3.68 ± 0.06 µM. Further, on Hck kinase, the Activity is 83.6 ± 6.0 nmol/s and the Fold-Activation is recorded as 8 ± 3.
For `CC[C@H](C)[C@H](NC(=O)[C@H](CC(C)C)NC(=O)[C@H](CC(=O)O)NC(=O)[C@H](CCC(=O)O)NC(=O)[C@@H](NC(=O)[C@@H]1CCCN1C(=O)[C@H](C)NC(=O)[C@H](CC(=O)O)NC(=O)[C@H](CC(=O)O)NC(=O)CNC(=O)[C@H](CCCNC(=N)N)NC(=O)[C@H](CC(N)=O)NC(=O)[C@H](CCCNC(=N)N)NC(=O)[C@@H]1CCCN1C(=O)[C@@H]1CCCN1C(=O)[C@H](CC(C)C)NC(=O)[C@@H]1CCCN1C(=O)[C@@H]1CCCN1C(=O)[C@H](C)N)C(C)C)C(=O)N[C@@H](CCCNC(=N)N)C(=O)N[C@@H](Cc1ccccc1)C(=O)N[C@@H](Cc1ccc(O)cc1)C(=O)N[C@@H](CC(=O)O)C(=O)N[C@@H](CC(N)=O)C(=O)N[C@@H](CC(C)C)C(=O)N[C@@H](CCC(N)=O)C(=O)N[C@@H](CCC(N)=O)C(=O)N[C@@H](Cc1ccc(O)cc1)C(=O)N[C@@H](CC(C)C)C(=O)N[C@@H](CC(N)=O)C(=O)N[C@H](C(=O)N[C@H](C(=O)N[C@H](C(=O)N[C@@H](CCCNC(=N)N)C(=O)N[C@@H](Cc1c[nH]cn1)C(=O)N[C@@H](CCCNC(=N)N)C(=O)N[C@@H](Cc1ccc(O)cc1)C(N)=O)[C@@H](C)O)C(C)C)C(C)C` [PP2] (H-APPLPPRNRGDDAPVEDLIRFYDNLQQYLNVVTRHRY-NH2), the Kd in data set [1] (PBS pH 7.4) was determined as 1.3 ± 0.2 µM. At Hck kinase, the Activity was 138.8 ± 7.6 nmol/s, the Fold-Activation stood at 13 ± 5 and the EC50 came to 48 ± 13 µM.
With `CC[C@H](C)[C@H](NC(=O)[C@H](CC(C)C)NC(=O)[C@H](CC(=O)O)NC(=O)[C@H](CCC(=O)O)NC(=O)[C@@H](NC(=O)[C@@H]1CCCN1C(=O)[C@H](C)NC(=O)[C@H](CC(=O)O)NC(=O)[C@H](CCCNC(=N)N)NC(=O)[C@@H]1CCCN1C(=O)[C@H](CCCNC(=N)N)NC(=O)[C@H](CC(N)=O)NC(=O)[C@H](CCCNC(=N)N)NC(=O)[C@@H]1CCCN1C(=O)[C@@H]1CCCN1C(=O)[C@H](CC(C)C)NC(=O)[C@@H]1CCCN1C(=O)[C@@H]1CCCN1C(=O)[C@H](C)N)C(C)C)C(=O)N[C@@H](CCCNC(=N)N)C(=O)N[C@@H](Cc1ccccc1)C(=O)N[C@@H](Cc1ccc(O)cc1)C(=O)N[C@@H](CC(=O)O)C(=O)N[C@@H](CC(N)=O)C(=O)N[C@@H](CC(C)C)C(=O)N[C@@H](CCC(N)=O)C(=O)N[C@@H](CCC(N)=O)C(=O)N[C@@H](Cc1ccc(O)cc1)C(=O)N[C@@H](CC(C)C)C(=O)N[C@@H](CC(N)=O)C(=O)N[C@H](C(=O)N[C@H](C(=O)N[C@H](C(=O)N[C@@H](CCCNC(=N)N)C(=O)N[C@@H](Cc1c[nH]cn1)C(=O)N[C@@H](CCCNC(=N)N)C(=O)N[C@@H](Cc1ccc(O)cc1)C(N)=O)[C@@H](C)O)C(C)C)C(C)C` [PP3] (H-APPLPPRNRPRDAPVEDLIRFYDNLQQYLNVVTRHRY-NH2), the Kd in data set [1] turned out to be 0.35 ± 0.04 µM. On Hck kinase, the Activity turned out to be 83.9 ± 5.4 nmol/s, the Fold-Activation is 7 ± 3 and the EC50 was determined as 48 ± 22 µM.
For “GPSQPTYPGDDAPVEDLIRFADNLQQYLNVVTRHRY [aPP^Y21A]”, in data set [2] (30 μM peptide, 25° C.), the “% monomer at 30 μM” value was found to be 14%. Further, the “lnKA when n = 2” value in data set [2] (monomer-dimer, 25° C.) is “when n = 2 13.57”. In data set [2] (monomer-n-mer fit, 25° C.), the “n (stoichiometry of the self-associated complex)” value stood at 1.86. The “Kd (self-association, dimer)” value in data set [2] (n = 2, 25° C., calculated from ln KA) was 1.3 µM. Further, the CD ellipticity at 222 nm in data set [3] is -14700 deg cm^2 dmol^−1.

The values above are taken from US20100273722A1, “MODIFIED MINIATURE PROTEINS” (Yale University, priority 2007, published 2010).
